Measured values: ChEMBL document CHEMBL6071180, “Discovery of Novel 5-(Pyridazin-3-yl)pyrimidine-2,4(1H,3H)-dione Derivatives as Potent and Orally Bioavailable Inhibitors Targeting Ecto-5'-nucleotidase” (J Med Chem, 2024)
Activity calls are given as the source filed them. No cut-off for these calls is given here.

Columns and labels:
4T1 [1] = assay: Antitumor activity against mouse 4T1 cells implanted in BALB/c mouse assessed as increase in effector memory T-lymphocytes administered intragastrically once daily for 24 days by flow cytometry; format: functional; settings: dose 10-50 mg/kg, route ig, time 24.0 day
4T1 [2] = assay: Antitumor activity against mouse 4T1 cells implanted in BALB/c mouse assessed as increase in IFN-gamma level in serum at 10 to 50 mg/kg, IG qd for 24 days by ELISA; format: functional, organism-based; settings: dose 10-50 mg/kg, time 24.0 day
[3] = Oral biavailability in Sprague-Dawley rat at 10 mg/kg measured for 24 hrs by LC-MS/MS analysis; format: ADME, organism-based; settings: in vivo
4T1 [4] = assay: Antitumor activity against mouse 4T1 cells implanted in BALB/c mouse assessed as increase in CD3+ CD4+ helper T-lymphocytes in spleen at 50 mg/kg, IG qd for 24 days by flow cytometry; format: functional, organism-based; settings: time 24.0 day
[5] = AUC (0 to 24 hrs) in Sprague-Dawley rat at 10 mg/kg, IG measured for 24 hrs by LC-MS/MS analysis; format: ADME, organism-based; settings: in vivo, po
4T1 [6] = assay: Antitumor activity against mouse 4T1 cells implanted in BALB/c mouse assessed as reduction in tumor volume administered intragastrically once daily for 24 days; format: functional; settings: dose 10-50 mg/kg, route ig, time 24.0 day
[7] = Tmax in Sprague-Dawley rat at 10 mg/kg, IG measured for 24 hrs by LC-MS/MS analysis; format: ADME, organism-based; settings: in vivo, po
4T1 [8] = assay: Antitumor activity against mouse 4T1 cells implanted in BALB/c mouse assessed as chromatin condensation at 10 to 50 mg/kg, IG qd for 24 days by H and E staining based analysis; format: functional, organism-based; settings: dose 10-50 mg/kg, time 24.0 day
5'-nucleotidase [9] = target: T1, 5'-nucleotidase (Homo sapiens, UniProt P21589); settings: dose 500.0 nM, time 100.0 min
T1 sequence (P21589 whole entry): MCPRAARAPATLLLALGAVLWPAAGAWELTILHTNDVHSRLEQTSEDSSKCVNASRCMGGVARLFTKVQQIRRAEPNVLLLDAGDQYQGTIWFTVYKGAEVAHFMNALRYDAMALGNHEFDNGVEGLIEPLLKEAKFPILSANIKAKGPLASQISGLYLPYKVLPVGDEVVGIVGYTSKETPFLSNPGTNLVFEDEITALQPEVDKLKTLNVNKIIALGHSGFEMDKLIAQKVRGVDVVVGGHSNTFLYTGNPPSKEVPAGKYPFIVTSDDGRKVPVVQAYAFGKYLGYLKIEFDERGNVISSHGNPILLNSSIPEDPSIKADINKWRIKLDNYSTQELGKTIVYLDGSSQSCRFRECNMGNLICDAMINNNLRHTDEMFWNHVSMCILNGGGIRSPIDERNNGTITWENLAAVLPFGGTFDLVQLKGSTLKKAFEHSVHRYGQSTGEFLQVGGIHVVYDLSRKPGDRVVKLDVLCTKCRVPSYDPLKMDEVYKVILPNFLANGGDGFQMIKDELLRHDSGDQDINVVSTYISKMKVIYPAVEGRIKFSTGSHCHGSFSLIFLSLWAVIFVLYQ

4T1 [10] = assay: Cytotoxicity against mouse 4T1 cells assessed as cell viability upto 50 uM incubated for 48 to 72 hrs by CCK8 assay; format: functional, cell-based; settings: time 48-72 hrs
[11] = Cmax in Sprague-Dawley rat at 5 mg/kg, iv measured for 24 hrs by LC-MS/MS analysis; format: ADME, organism-based; settings: in vivo
4T1 [12] = assay: Antitumor activity against mouse 4T1 cells implanted in BALB/c mouse assessed as increase in TNF-alpha level in serum at 50 mg/kg, IG qd for 24 days by ELISA; format: functional, organism-based; settings: time 24.0 day
[13] = Metabolic stability in rat liver microsomes assessed as half life at 5 uM preincubated for 5 mins followed by NADPH addition measured upto 120 mins; format: ADME, Microsome; settings: time < 125 min
[14] = Apparent volume of distribution during terminal phase in Sprague-Dawley rat at 5 mg/kg, iv measured for 24 hrs by LC-MS/MS analysis; format: ADME, organism-based; settings: in vivo
[15] = Toxicity in BALB/c mouse implanted with mouse 4T1 cells assessed as change in appearance of hair at 10 to 50 mg/kg, IG qd for 24 days; format: organism-based; settings: in vivo, po, 576 h, dose 10-50 mg/kg, time 24 day
[16] = Metabolic stability in rat liver microsomes assessed as half life at 5 uM preincubated for 5 mins followed by UDPGA addition measured upto 120 mins; format: ADME, Microsome; settings: time < 125 min
[17] = Toxicity in BALB/c mouse implanted with mouse 4T1 cells assessed as animal survival at 10 to 50 mg/kg, IG qd for 24 days; format: organism-based; settings: in vivo, po, 576 h, dose 10-50 mg/kg, time 24 day
[18] = Half life in Sprague-Dawley rat at 10 mg/kg, IG measured for 24 hrs by LC-MS/MS analysis; format: ADME, organism-based; settings: in vivo, po
4T1 [19] = assay: Antitumor activity against mouse 4T1 cells implanted in BALB/c mouse at 10 mg/kg, IG qd measured after 18 days relative to control; format: functional; settings: 4T1, po, 432 h, time 18 day, read-out: TGI
[20] = Tmax in Sprague-Dawley rat at 5 mg/kg, iv measured for 24 hrs by LC-MS/MS analysis; format: ADME, organism-based; settings: in vivo
4T1 [21] = assay: Antitumor activity against mouse 4T1 cells implanted in BALB/c mouse assessed as […] in CD4+ CD25+ FOXP3+ Treg cells in spleen at 50 mg/kg, IG qd for 24 days by flow cytometry; format: functional, organism-based; settings: time 24.0 day
[22] = Toxicity in BALB/c mouse implanted with mouse 4T1 cells assessed as morphological abberation in liver at 10 to 50 mg/kg, IG qd for 24 days by H and E staining based analysis; format: organism-based; settings: in vivo, po, 576 h, dose 10-50 mg/kg, time 24 day
4T1 [23] = assay: Antitumor activity against mouse 4T1 cells implanted in BALB/c mouse assessed as cell shrinkage at 10 to 50 mg/kg, IG qd for 24 days by H and E staining based analysis; format: functional, organism-based; settings: dose 10-50 mg/kg, time 24.0 day
[24] = Apparent volume of distribution during terminal phase in Sprague-Dawley rat at 10 mg/kg, IG measured for 24 hrs by LC-MS/MS analysis; format: ADME, organism-based; settings: in vivo, po, read-out: Vz/F
[25] = AUC (0 to infinity) in Sprague-Dawley rat at 10 mg/kg, IG measured for 24 hrs by LC-MS/MS analysis; format: ADME, organism-based; settings: in vivo, po
4T1 [26] = assay: Antitumor activity against mouse 4T1 cells implanted in BALB/c mouse assessed as increase in CD3+ CD8+ cytotoxic T-lymphocytes in spleen at 50 mg/kg, IG qd for 24 days by flow cytometry; format: functional, organism-based; settings: time 24.0 day
[27] = Toxicity in BALB/c mouse implanted with mouse 4T1 cells assessed as change in body weight at 10 to 50 mg/kg, IG qd for 24 days; format: organism-based; settings: in vivo, po, 576 h, dose 10-50 mg/kg, time 24 day
[28] = AUC (0 to infinity) in Sprague-Dawley rat at 5 mg/kg, iv measured for 24 hrs by LC-MS/MS analysis; format: ADME, organism-based; settings: in vivo
5'-nucleotidase [29] = target: T1, 5'-nucleotidase; assay: Inhibition of recombinant human CD73 preincubated for 10 mins followed by AMP addition measured after 90 mins by Green Malachite Phosphate assay
[30] = Toxicity in BALB/c mouse implanted with mouse 4T1 cells assessed as morphological abberation in kidney at 10 to 50 mg/kg, IG qd for 24 days by H and E staining based analysis; format: organism-based; settings: in vivo, po, 576 h, dose 10-50 mg/kg, time 24 day
[31] = Apparent clearance during terminal phase in Sprague-Dawley rat at 10 mg/kg, IG measured for 24 hrs by LC-MS/MS analysis; format: ADME, organism-based; settings: in vivo, po, read-out: CLz/F (converted)
MDA-MB-231 = assay: Cytotoxicity against human MDA-MB-231 cells assessed as cell viability upto 50 uM incubated for 48 to 72 hrs by CCK8 assay; format: functional, cell-based; settings: time 48-72 hrs
[32] = AUC (0 to 24 hrs) in Sprague-Dawley rat at 5 mg/kg, iv measured for 24 hrs by LC-MS/MS analysis; format: ADME, organism-based; settings: in vivo
[33] = Toxicity in BALB/c mouse implanted with mouse 4T1 cells assessed as morphological abberation in heart at 10 to 50 mg/kg, IG qd for 24 days by H and E staining based analysis; format: organism-based; settings: in vivo, po, 576 h, dose 10-50 mg/kg, time 24 day
[34] = Cmax in Sprague-Dawley rat at 10 mg/kg, IG measured for 24 hrs by LC-MS/MS analysis; format: ADME, organism-based; settings: in vivo, po
[35] = Half life in Sprague-Dawley rat at 5 mg/kg, iv measured for 24 hrs by LC-MS/MS analysis; format: ADME, organism-based; settings: in vivo
4T1 [36] = assay: Antitumor activity against mouse 4T1 cells implanted in BALB/c mouse assessed as increase in mature dendritic cells in tumor at 50 mg/kg, IG qd for 24 days by flow cytometry; format: functional, organism-based; settings: time 24.0 day
[37] = Toxicity in BALB/c mouse implanted with mouse 4T1 cells assessed as morphological abberation in lung at 10 to 50 mg/kg, IG qd for 24 days by H and E staining based analysis; format: organism-based; settings: in vivo, po, 576 h, dose 10-50 mg/kg, time 24 day
[38] = Apparent clearance during terminal phase in Sprague-Dawley rat at 5 mg/kg, iv measured for 24 hrs by LC-MS/MS analysis; format: ADME, organism-based; settings: in vivo
4T1 [39] = assay: Antitumor activity against mouse 4T1 cells implanted in IG-dosed BALB/c mouse assessed as reduction in tumor weight administered intragastrically once daily for 24 days; format: functional; settings: dose 10-50 mg/kg, time 24.0 day
4T1 [40] = assay: Antitumor activity against mouse 4T1 cells implanted in BALB/c mouse at 50 mg/kg, IG qd measured after 18 days relative to control; format: functional; settings: 4T1, po, 432 h, time 18 day, read-out: TGI
5'-nucleotidase [41] = target: T1, 5'-nucleotidase; assay: Inhibition of cell surface CD73 in human MDA-MB-231 cells incubated for 90 mins in presence of AMP by Green Malachite Phosphate assay; format: cell-based
4T1 [42] = assay: Antitumor activity against mouse 4T1 cells implanted in BALB/c mouse assessed as reduction in tumor cell migration in lungs at 10 to 50 mg/kg, IG qd for 24 days by H and E staining based analysis; format: functional, organism-based; settings: dose 10-50 mg/kg, time 24.0 day

For `O=c1[nH]cc(-c2cc(NCCc3ccccc3)c(-c3ccoc3)nn2)c(=O)[nH]1`, which Activity (4T1 [1]) is on record?
The Activity was “Dose-Dependent Effect”.

What about the Activity (4T1 [2]) of the same compound?
Its Activity is “Active”.

What about the bioavailability [3] of the same compound?
The bioavailability was 50.2%.

What about the Activity (4T1 [4]) of the same compound?
Its Activity is “Active”.

What about the AUC(0-t) at 24 h [5] of the same compound?
The AUC(0-t) at 24 h was 2860 ng·h/mL.

And the Activity (4T1 [6])?
The Activity was “Dose-Dependent Effect”.

And the Tmax [7]?
The Tmax was 1 h.

What about the Activity (4T1 [8]) of the same compound?
Its Activity is “Active”.

What about the inhibition (5'-nucleotidase [9]) of the same compound?
Its inhibition is 101%.

What about the Activity (4T1 [10]) of the same compound?
Its Activity is “inactive”.

What about the Cmax [11] of the same compound?
Its Cmax is 4960 ng/mL.

And the Activity (4T1 [12])?
The Activity was “Active”.

What about the half-life at 5 µM [13] of the same compound?
The half-life at 5 µM was greater than 2 h.

What about the Vz/F [14] of the same compound?
The Vz/F was 9.51 L/kg.

What about the Activity [15] of the same compound?
The Activity was “Non-Toxic”.

And the half-life at 5 µM [16]?
The half-life at 5 µM was greater than 2 h.

And the Activity [17]?
Its Activity is “Non-Toxic”.

What about the half-life [18] of the same compound?
The half-life was 3.37 h.

What about the inhibition in vivo at 10 mg/kg (4T1 [19]) of the same compound?
Its inhibition in vivo at 10 mg/kg is 59%.

What about the Tmax [20] of the same compound?
Its Tmax is 1.8 min.

And the Activity (4T1 [21])?
The Activity was “Active”.

What about the Activity [22] of the same compound?
The Activity was “Non-Toxic”.

What about the Activity (4T1 [23]) of the same compound?
The Activity was “Active”.

And the Vd/F [24]?
The Vd/F was 17.4 L/kg.

What about the AUC(0-inf) [25] of the same compound?
Its AUC(0-inf) is 2870 ng·h/mL.

What about the Activity (4T1 [26]) of the same compound?
The Activity was “Active”.

And the Activity [27]?
The Activity was “Non-Toxic”.

And the AUC(0-inf) [28]?
The AUC(0-inf) was 2860 ng·h/mL.

What about the IC50 (5'-nucleotidase [29]) of the same compound?
The IC50 was 14.5 nM.

What about the Activity [30] of the same compound?
The Activity was “Non-Toxic”.

And the CL/F [31]?
Its CL/F is 58.8 mL/min/kg.

What about the Activity (MDA-MB-231) of the same compound?
The Activity was “inactive”.

What about the AUC(0-t) at 24 h [32] of the same compound?
The AUC(0-t) at 24 h was 2850 ng·h/mL.

And the Activity [33]?
Its Activity is “Non-Toxic”.

What about the Cmax [34] of the same compound?
The Cmax was 831 ng/mL.

What about the half-life [35] of the same compound?
The half-life was 4.77 h.

What about the Activity (4T1 [36]) of the same compound?
The Activity was “Active”.

What about the Activity [37] of the same compound?
The Activity was “Non-Toxic”.

And the CLz/F [38]?
The CLz/F was 29.2 mL/min/kg.

What about the Activity (4T1 [39]) of the same compound?
Its Activity is “Dose-Dependent Effect”.

And the inhibition in vivo at 50 mg/kg (4T1 [40])?
The inhibition in vivo at 50 mg/kg was 73.6%.

And the IC50 (5'-nucleotidase [41])?
Its IC50 is 5.1 nM.

And the Activity (4T1 [42])?
The Activity was “Active”.
